Results on 39 molecules are retold here after US20250235422A1 (BiomEdit, Inc., priority 2024, published 2025).

Data set [1] deals with T1, AHR (Homo sapiens, UniProt P35869).
T1 sequence (P35869 11-848): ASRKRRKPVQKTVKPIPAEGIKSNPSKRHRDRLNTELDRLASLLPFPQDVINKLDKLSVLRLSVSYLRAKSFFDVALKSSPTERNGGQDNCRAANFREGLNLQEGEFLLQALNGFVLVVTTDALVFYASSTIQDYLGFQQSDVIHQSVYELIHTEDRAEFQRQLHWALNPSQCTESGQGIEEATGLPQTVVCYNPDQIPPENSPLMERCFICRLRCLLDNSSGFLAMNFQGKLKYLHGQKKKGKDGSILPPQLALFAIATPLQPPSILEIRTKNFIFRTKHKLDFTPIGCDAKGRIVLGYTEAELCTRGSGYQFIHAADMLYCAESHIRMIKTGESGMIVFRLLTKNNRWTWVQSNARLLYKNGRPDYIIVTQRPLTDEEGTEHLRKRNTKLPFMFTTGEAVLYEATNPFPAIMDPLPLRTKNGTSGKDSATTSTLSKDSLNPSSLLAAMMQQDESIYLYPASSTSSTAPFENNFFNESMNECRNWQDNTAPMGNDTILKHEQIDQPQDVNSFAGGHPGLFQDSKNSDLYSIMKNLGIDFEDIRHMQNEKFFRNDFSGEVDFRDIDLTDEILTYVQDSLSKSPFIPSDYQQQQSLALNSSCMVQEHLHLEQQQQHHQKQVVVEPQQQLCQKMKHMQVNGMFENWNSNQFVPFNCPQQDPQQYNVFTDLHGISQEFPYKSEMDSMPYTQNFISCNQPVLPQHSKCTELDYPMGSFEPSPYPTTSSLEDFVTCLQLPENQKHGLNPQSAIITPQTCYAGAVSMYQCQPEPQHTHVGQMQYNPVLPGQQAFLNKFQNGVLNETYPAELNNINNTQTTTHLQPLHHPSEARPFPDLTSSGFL
Conditions: cited from earlier work.

Data set [2] can be described thus: Light stability and hydrophobicity observed during development. The class given is physicochemical. The conditions noted are these: light exposure.
The subject of data set [3] is psoriasis and AD. The conditions noted are these: humans; cited from earlier work.
Where [4] appears, read: AHR ligand activity, Table 1 reproduced from Barroso A et al., 2021.

Entries after “also recorded” stand apart in the source; their conditions may differ. Like-named read-outs stand apart in the source and are kept apart here.

On to `CCCCC/C=C\C[C@@H](O)/C=C/C=C\C/C=C\CCCC(=O)O`, for which the Activity result in data set [1] (setting [4]) is “Agonist”.

On to `N#CCc1c[nH]c2ccccc12` [Indole-3-acetonitrile (IAN), Indole-3-acetonitrile], for which the Activity result in data set [1] (setting [4]) is recorded as “Agonist”.

As to `COc1ccc(-c2cc(=O)c3ccccc3o2)cc1OC` [3′4′-Dimethoxyflavone], the Activity result in data set [1] (setting [4]) is recorded as “Partial”.

With `Cc1c[nH]c2ccccc12` [3-Methylindole (Skatole), 3-Methylindole], the Activity entry in data set [1] (setting [4]) is given as “Partial”.

As to `COc1cc(-c2cc(=O)c3ccccc3o2)ccc1[N+](=O)[O-]` [3′-methoxy-4′-nitroflavone (MNF), 3′-methoxy-4′-nitroflavone], in data set [1] (setting [4]), the Activity entry is “Antagonist”.

For the molecule `Cc1ccc2cc3c(ccc4ccccc43)c3c2c1CC3` [3-Methylcholanthrene], the Activity entry in data set [1] (setting [4]) is reported as “Agonist”.

Regarding `O=c1c(O)c(-c2ccc(O)c(O)c2)oc2cc(O)cc(O)c12` [Quercetin], in data set [1] (setting [4]), the Activity result is reported as “Partial”.

`O=C(O)[C@H]1O[C@@H](Oc2cc3oc(-c4ccccc4)cc(=O)c3c(O)c2O)[C@H](O)[C@@H](O)[C@@H]1O` [Baicalin]: the Activity entry in data set [1] (setting [4]) is listed as “AntAgonist”.

For the molecule `CC=CC=CC=CC=CC=CC(=O)O` [DDPA, dodeca-2,4,6,8,10-pentaenoic acid], the photostability result in data set [2] is reported as “photolabile; also recorded: photodecomposition leads to a loss of potency”.

As to `c1ccc2c(Cc3[nH]c4ccccc4c3Cc3c[nH]c4ccccc34)c[nH]c2c1` [2-(Indol-3-ylmethyl)-3,39-diindolylmethane], the Activity entry in data set [1] (setting [4]) is “Agonist”.

As to `Nc1c(C(=O)O)c2nc3c(C(=O)O)cccc3oc-2cc1=O` [Cinnabarinic acid (CA), Cinnabarinic acid], the Activity result in data set [1] (setting [4]) was “Agonist”.

As to `COC(=O)c1csc(C(=O)c2c[nH]c3ccccc23)n1` [2-(19H-indole-39-carbonyl)-thiazole-4-carboxylic acid methyl ester], in data set [1] (setting [4]), the Activity entry is given as “Agonist”.

Turning to `O=C(O)Cc1ccccc1Nc1c(Cl)cccc1Cl` [Diclofenac], in data set [1], the Activity entry is reported as “Agonist”.

Regarding `CC(C)c1c(O)cc(/C=C/c2ccccc2)cc1O` [Tapinarof, 3,5-dihydroxy-4-isopropyl-trans-stilbene], the Activity entry in data set [1] (setting [4]) is on record as “Agonist”. For the same molecule, the “effectiveness for treatment of psoriasis and AD” value in data set [3] is “effective”.

As for `O=C(O)c1cc(O)c2ccccc2c1O` [1,4-dihydroxy-2-naphthoic acid (DHNA), 1,4-dihydroxy-2-naphthoic acid], in data set [1] (setting [4]), the Activity result is recorded as “Agonist”.

For `Clc1cc2c(cc1Cl)Oc1cc(Cl)c(Cl)cc1O2` [2,3,7,8-Tetrachlorodibenzop-dioxin], the Activity result in data set [1] (setting [4]) is given as “Agonist”.

Consider `O=S(=O)(O)Oc1c[nH]c2ccccc12` [Indoxyl-3-sulfate (I3S), Indoxyl-3-sulfate], for which the Activity result in data set [1] (setting [4]) is “Agonist”.

In the case of `COc1cc2c(cc1O)C[C@@H]1NCCc3cc(OC)c(O)c-2c31` [Norisoboldine], the Activity entry in data set [1] (setting [4]) is on record as “Agonist”.

On to `Nc1ccccc1C(=O)C[C@H](N)C(=O)O` [L-Kynurenine (Kyn), L-Kynurenine], for which the Activity result in data set [1] (setting [4]) is recorded as “Agonist”.

With `O=Cc1c2c(cc3c1=Nc1ccccc1-3)=Nc1ccccc1-2` [6-Formylindolo [3,2-b] carbazole (FICZ), 6-Formylindolo [3,2-b] carbazole], the Activity entry in data set [1] (setting [4]) is reported as “Agonist”.

In the case of `CC(C)c1cnn2c(N[C@@H]3CCc4[nH]c5ccccc5c4C3)nc(-c3cncc(F)c3)nc12` [AHR antagonist 5 (IK-775)], the Activity entry in data set [1] (setting [4]) is given as “Antagonist”.

For the molecule `Cc1ccccc1N=Nc1ccc(NC(=O)c2ccnn2C)c(C)c1` [CH-223191], the Activity entry in data set [1] (setting [4]) is given as “AntAgonist”.

Regarding `CCCCC[C@H](O)/C=C/C=C\C=C\C=C\[C@@H](O)[C@@H](O)CCCC(=O)O` [Lipoxin A4], the Activity entry in data set [1] (setting [4]) was “Agonist”.

For `O=C1c2ccccc2-n2c1nc1ccccc1c2=O` [Tryptanthrin], in data set [1] (setting [4]), the Activity entry is “Agonist”.

As for `FC(F)(F)c1ccc(Nc2nccc(-c3cccc(Cl)c3)n2)cc1` [VAF347], in data set [1] (setting [4]), the Activity result was “Agonist”.

On to `c1ccc2c(c1)N=c1cc3c(cc1-2)=Nc1ccccc1-3` [Indolo [3,2-b]carbazole (ICZ), Indolo [3,2-b]carbazole], for which, in data set [1] (setting [4]), the Activity entry is “Agonist”.

For the molecule `N[C@@H](Cc1c[nH]c2ccc(O)cc12)C(=O)O` [5-hydroxytryptophan (5HTP), 5-hydroxytryptophan], the Activity entry in data set [1] (setting [4]) was “Agonist”.

As for `Cc1cc(Cl)cc2c1oc1cc(Cl)cc(Cl)c12` [6-Methyl-1,3,8-trichlorodibenzofuran], the Activity result in data set [1] (setting [4]) is given as “Partial”.

As for `c1ccc2c(Cc3c[nH]c4ccccc34)c[nH]c2c1` [3,3-diindolylmethane (DIM), 3,3-diindolylmethane], in data set [1] (setting [4]), the Activity entry is given as “Agonist”.

Consider `c1ccc2[nH]ccc2c1` [Indole], for which, in data set [1], the Activity entry was “Agonist”.

In the case of `NCCc1c[nH]c2ccccc12` [Tryptamine], the Activity entry in data set [1] (setting [4]) was “Agonist”.

As for `O=c1cc(-c2ccccc2)oc2ccc3ccccc3c12` [Beta-naphthoflavone], in data set [1] (setting [4]), the Activity result is recorded as “Agonist”.

Regarding `OCc1c[nH]c2ccccc12` [Indole-3-carbinol (I3C), Indole-3-carbinol], the Activity entry in data set [1] (setting [4]) was “Agonist”.

For the molecule `CC1=C(CC(=O)O)c2cc(F)ccc2/C1=C\c1ccc([S+](C)[O-])cc1` (stereo not shown) [Sulindac], the Activity result in data set [1] (setting [4]) is reported as “Agonist”.

With `CC(C)n1cnc2c(NCCc3ccc(O)cc3)nc(-c3csc4ccccc34)nc21` [StemRegenin 1 (SR1), StemRegenin 1], the Activity result in data set [1] (setting [4]) was “AntAgonist”.

Take `O=Cc1c(Cc2c[nH]c3ccccc23)[nH]c2ccccc12` [Malassezin]: in data set [1] (setting [4]), the Activity entry is on record as “Agonist”.

As to `C=CC1=C(C)/C(=C/C2=NC(=C\c3[nH]c(/C=C4\NC(=O)C(C)=C4C=C)c(C)c3CCC(=O)O)/C(CCC(=O)O)=C2C)NC1=O` [Biliverdin], the Activity result in data set [1] (setting [4]) was “Agonist”.

As to `O=Cc1c[nH]c2ccccc12` [Indole-3-aldehyde (I3CA), Indole-3-aldehyde], the Activity result in data set [1] (setting [4]) is given as “Agonist”.

Consider `O=C(O)c1cc(O)c2cccc(O)c2n1` [Xanthurenic acid], for which the Activity entry in data set [1] (setting [4]) was “Agonist”.
